pIC50: −log10 of the molar value.
These molecules were tested against T1, bromodomain BRD4 (44-168), BRD4 (333-460), and BRD4 (1-477 or 44-460) (Homo sapiens, UniProt O60885) (assay: Time Resolved Fluorescence Resonance Energy Transfer (TR-FRET) binding assay). Conditions: one of the FRET assays described.
T1 construct: BRD4(44-168), BRD4(333-460), BRD4(44-460), BRD4(1-477), O60885-1; fused on or other part: N-terminal BirA biotinylation motif, biotinylated; The TVMV-cleavable His6 tag is removed, except in some BRD4(44-460) runs detected with anti-His terbium cryptate

| Structure (SMILES) | pIC50 |
| --- | --- |
| Cc1noc(C)c1-c1cc(C(N)=O)c2c3cc(C(=O)N4CC(C)OC(C)C4)ccc3n(Cc3ncco3)c2c1 (stereo not drawn) [Example 29] | > 6.30 |
| COc1ccccc1Cn1c2ccc(C(=O)N3CC(C)OC(C)C3)cc2c2c(C(N)=O)cc(-c3c(C)noc3C)cc21 (stereo not drawn) [Example 40] | > 7.30 |
| Cc1noc(C)c1-c1cc(C(N)=O)c2c3cc(C(=O)N4CCCC(C)(C)C4)ccc3n(Cc3ccccc3)c2c1 [Example 72] | > 7.30 |
| Cc1noc(C)c1-c1cc(C(N)=O)c2c3cc(C(=O)N4CCC(C)(C)C4)ccc3n(Cc3ccccc3)c2c1 [Example 58] | > 7.30 |
| COc1ccc2c(c1)c1c(C(N)=O)cc(-c3c(C)noc3C)cc1n2C(C)c1ccccc1 (single isomer, unassigned) [Example 179, 2-(3,5-dimethyl-4-isoxazolyl)-6-methoxy-9-(1-phenylethyl)-9H-carbazole-4-carboxamide] | > 7.30 |
| CNC(=O)c1cc(-c2c(C)noc2C)cc2c1c1cc(C(=O)N3CC(F)C3)ccc1n2Cc1ccc(F)cc1 [Example 103] | > 7.30 |
| Cc1noc(C)c1-c1ccc2c(c1)[nH]c1ccc(C(=O)N3CCOCC3)cc12 [Example 1, 2-(3,5-dimethyl-4-isoxazolyl)-6-(4-morpholinylcarbonyl)-9H-carbazole] | > 6.30 |
| CNC(=O)c1cc(-c2c(C)noc2C)cc2c1c1cc(C(=O)N3CC(F)C3)ccc1n2Cc1c(F)cccc1F [Example 105] | > 7.30 |
| Cc1noc(C)c1-c1cc(C(N)=O)c2c3cc(N4CCCCS4(=O)=O)ccc3n(Cc3ccc(F)cc3)c2c1 [Example 175, 2-(3,5-dimethyl-4-isoxazolyl)-6-(1,1-dioxido-1,2-thiazinan-2-yl)-9-(4-fluorobenzyl)-9H-carbazole-4-carboxamide] | > 7.30 |
| Cc1noc(C)c1-c1cc(C(N)=O)c2c3cc(N4CCCOC4=O)ccc3n(C(C)c3ccccc3)c2c1 (stereo not drawn) [Example 158, 2-(3,5-dimethyl-4-isoxazolyl)-6-(2-oxo-1,3-oxazinan-3-yl)-9-(1-phenylethyl)-9H-carbazole-4-carboxamide] | > 7.30 |

Further lines, results first:

| pIC50 | Structure (SMILES) |
| --- | --- |
| > 7.30 | Cc1csc(Cn2c3ccc(C(=O)N4CCC(F)C4)cc3c3c(C(N)=O)cc(-c4c(C)noc4C)cc32)n1 (stereo not drawn) [Example 83] |
| > 7.30 | Cc1noc(C)c1-c1cc(C(N)=O)c2c3cc(C(=O)N4CC(C)OC(C)C4)ccc3n(Cc3cccc(C#N)c3)c2c1 (stereo not drawn) [Example 44] |
| > 7.30 | CNC(=O)c1cc(-c2c(C)noc2C)cc2c1c1cc(N(C)C)ccc1n2Cc1ccccc1 [Example 141, 9-benzyl-6-(dimethylamino)-2-(3,5-dimethyl-4-isoxazolyl)-N-methyl-9H-carbazole-4-carboxamide] |
| > 7.30 | Cc1noc(C)c1-c1cc(C(N)=O)c2c3cc(C(=O)N4CC(C)OC(C)C4)ccc3n(Cc3ccc(F)cc3F)c2c1 (stereo not drawn) [Example 36] |
| > 7.30 | Cc1noc(C)c1-c1cc(C(N)=O)c2c3cc(NC(=O)N4CCOCC4)ccc3n(Cc3ccccc3)c2c1 [Example 146, 9-benzyl-2-(3,5-dimethyl-4-isoxazolyl)-6-((4-morpholinylcarbonyl)amino)-9H-carbazole-4-carboxamide] |
| > 7.30 | Cc1noc(C)c1-c1cc(C(N)=O)c2c3cc(C(=O)N4CCC(C)(O)CC4)ccc3n(Cc3ccccc3)c2c1 [Example 51] |
| > 7.30 | CNC(=O)c1cc(-c2c(C)noc2C)cc2c1c1cc(C(=O)N3CC(F)(F)C3)ccc1n2C(C)c1ccccc1 (stereo not drawn) [Example 119, 6-((3,3-difluoro-1-azetidinyl)carbonyl)-2-(3,5-dimethyl-4-isoxazolyl)-N-methyl-9-(1-phenylethyl)-9H-carbazole-4-carboxamide] |
| > 7.30 | Cc1noc(C)c1-c1cc(C(N)=O)c2c3cc(NCC(F)F)ccc3n(Cc3ccccc3)c2c1 [Example 139, 9-benzyl-6-((2,2-difluoroethyl)amino)-2-(3,5-dimethyl-4-isoxazolyl)-9H-carbazole-4-carboxamide] |

— patent US9492460B2, “Carbazole compounds useful as bromodomain inhibitors” (Bristol-Myers Squibb Company, priority 2013, dated 2016)
